Test results taken from ChEMBL document CHEMBL1949578, “Inhibitors of acetyltransferase domain of N-acetylglucosamine-1-phosphate-uridyltransferase/glucosamine-1-phosphate-acetyltransferase (GlmU). Part 1: Hit to lead evaluation of a novel arylsulfonamide series” (Bioorg Med Chem Lett, 2012).

Legend:
[1] = Inhibition of Haemophilus influenzae acetyltransferase activity of GlmU using acetyl-CoA and glucosamine-1-phosphate after 30 mins by Ellman's method
[2] = Inhibition of Escherichia coli acetyltransferase activity of GlmU using acetyl-CoA and glucosamine-1-phosphate after 30 mins by Ellman's method
[3] = biological target: Bifunctional protein GlmU (Streptococcus pneumoniae serotype 4 (strain ATCC BAA-334 / TIGR4), UniProt Q97R46); assay: (§1) Inhibition of Streptococcus pneumoniae acetyltransferase activity of GlmU using acetyl-CoA and glucosamine-1-phosphate after 30 mins by Ellman's method
[4] = Inhibition of Staphylococcus aureus acetyltransferase activity of GlmU using acetyl-CoA and glucosamine-1-phosphate after 30 mins by Ellman's method
[5] = Lipophilicity, log D of the compound at pH 7.4; conditions: buffer
[6] = biological target: Bifunctional protein GlmU (Streptococcus pneumoniae serotype 4 (strain ATCC BAA-334 / TIGR4)) (UniProt Q97R46); assay: as §1
Sequence of Bifunctional protein GlmU (Streptococcus pneumoniae serotype 4 (strain ATCC BAA-334 / TIGR4)) (Q97R46 whole entry): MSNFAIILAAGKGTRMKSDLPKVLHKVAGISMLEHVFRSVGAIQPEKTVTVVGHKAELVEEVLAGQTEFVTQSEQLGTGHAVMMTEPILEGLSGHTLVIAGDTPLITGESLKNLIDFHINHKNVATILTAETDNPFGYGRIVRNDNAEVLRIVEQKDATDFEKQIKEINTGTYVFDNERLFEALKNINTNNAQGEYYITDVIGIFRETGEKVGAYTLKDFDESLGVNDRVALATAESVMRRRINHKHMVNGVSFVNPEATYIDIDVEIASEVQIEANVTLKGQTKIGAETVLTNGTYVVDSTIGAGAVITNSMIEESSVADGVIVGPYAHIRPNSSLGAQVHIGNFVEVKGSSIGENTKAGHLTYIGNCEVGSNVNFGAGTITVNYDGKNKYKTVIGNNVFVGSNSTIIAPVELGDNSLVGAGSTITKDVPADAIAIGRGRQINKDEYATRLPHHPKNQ

Sequence of Bifunctional protein GlmU (Q97R46 whole entry): as above

Row | Compound | IC50 [1] [µM] | IC50 [2] [µM] | IC50 [3] [µM] | IC50 [4] [µM] | logD [5] | inhibition [6] [%]
1 | COc1cc(OC)c(S(=O)(=O)N2c3ccccc3CCC2C)cc1NC(=O)COc1ccc(C(C)=O)cc1 (stereo not drawn) | > 200 | > 200 | > 200 | > 200 | – | –
2 | COc1cc(OC)c(S(=O)(=O)N(C)C)cc1NC(C)=O | > 200 | > 200 | > 200 | > 200 | – | –
3 | COc1cc(OC)c(S(=O)(=O)NCc2ccccc2N2CCCCC2)cc1NC(C)=O | 120 | > 200 | – | > 200 | – | –
4 | COc1cc(OC)c(S(=O)(=O)Nc2ccc(C)cc2)cc1NC(C)=O | 47 | 21 | > 200 | > 200 | – | –
5 | COC(=O)c1ccccc1CNS(=O)(=O)c1cc(NC(C)=O)c(OC)cc1OC | 55 | 15 | > 200 | > 200 | – | –
6 | COc1cc(OC)c(S(=O)(=O)Nc2cccc(F)c2)cc1NC(C)=O | 30 | 15 | > 200 | > 200 | – | –
7 | COc1cc(OC)c(S(=O)(=O)N2CCCCC2)cc1NC(C)=O | > 200 | 80 | > 200 | > 200 | – | –
8 | COc1cc(OC)c(S(=O)(=O)N(C)c2ccccc2)cc1NC(C)=O | 6 | 3 | > 200 | > 200 | – | –
9 | COc1cc(OC)c(S(=O)(=O)NCc2ccccc2Br)cc1NC(C)=O | 20 | 4 | > 200 | > 200 | – | –
10 | COc1cc(OC)c(S(=O)(=O)Nc2ccccc2)cc1NC(C)=O | 70 | 20 | > 200 | > 200 | – | –
11 | COc1cc(OC)c(S(=O)(=O)N(c2ccccc2)C(C)C)cc1NC(C)=O | 16 | 2 | > 200 | > 200 | – | –
12 | COc1cc(OC)c(S(=O)(=O)N2c3ccccc3CC2C)cc1NC(C)=O (stereo not drawn) | 8 | – | > 200 | > 200 | – | –
13 | COc1cc(OC)c(S(=O)(=O)NCc2ccccc2N2CCC(CO)CC2)cc1NC(C)=O | 80 | 40 | 70 | > 200 | 1.03 | –
14 | COc1ccccc1CNS(=O)(=O)c1cc(NC(C)=O)c(OC)cc1OC | 54 | 10 | > 200 | > 200 | – | –
15 | COc1cc(OC)c(S(=O)(=O)N2c3ccccc3CCC2C)cc1NC(=O)CSc1ccncc1 (stereo not drawn) | 6 | 1 | > 200 | > 200 | 2.8 | –
16 | COc1cc(OC)c(S(=O)(=O)N2c3ccccc3CCC2C)cc1NC(=O)c1ccccc1 (stereo not drawn) | > 200 | > 200 | > 200 | > 200 | – | –
17 | COc1cc(OC)c(S(=O)(=O)Nc2cccc(C)c2)cc1NC(C)=O | 40 | 17 | > 200 | > 200 | – | –
18 | COc1cc(OC)c(S(=O)(=O)NCc2ccccc2N2CCC(CO)CC2)cc1NC(=O)CCC(=O)O | 6 | 3 | 5 | > 200 | < -1 | –
19 | COc1cc(OC)c(S(=O)(=O)N2c3ccccc3CCC2C)cc1NS(C)(=O)=O (stereo not drawn) | > 200 | 100 | > 200 | > 200 | – | –
20 | COc1cc(OC)c(S(=O)(=O)N2CCCCC2C)cc1NC(C)=O (stereo not drawn) | > 200 | 130 | > 200 | > 200 | – | –
21 | COc1cc(OC)c(S(=O)(=O)NCc2ccc3c(c2)OCO3)cc1NC(C)=O | > 200 | > 200 | > 200 | > 200 | – | –
22 | CCN(c1ccccc1C)S(=O)(=O)c1cc(NC(C)=O)c(OC)cc1OC | 80 | 15 | > 200 | > 200 | – | –
23 | COc1cc(OC)c(S(=O)(=O)NCc2ccccc2N2CCC(COC(=O)CCC(=O)O)CC2)cc1NC(=O)CCC(=O)O | – | 0.25 | – | > 200 | -1 | –
24 | COc1cc(OC)c(S(=O)(=O)Nc2ccccc2F)cc1NC(C)=O | 10 | 5 | > 200 | > 200 | – | –
25 | COc1cc(OC)c(S(=O)(=O)N2CCCC2C)cc1NC(C)=O (stereo not drawn) | > 200 | > 200 | > 200 | > 200 | – | –
26 | COc1cc(OC)c(S(=O)(=O)Nc2ccc(F)cc2)cc1NC(C)=O | 60 | 25 | > 200 | > 200 | – | –

Next, values leading:

Row | IC50 [1] [µM] | IC50 [2] [µM] | IC50 [3] [µM] | IC50 [4] [µM] | logD [5] | inhibition [6] [%] | Compound
27 | 2 | 2 | 90 | > 200 | – | – | COc1cc(OC)c(S(=O)(=O)N2c3ccccc3CCC2C)cc1NC(=O)COC(C)=O (stereo not drawn)
28 | 5 | 0.5 | 20 | > 200 | -1.02 | – | COc1cc(OC)c(S(=O)(=O)N2c3ccccc3CCC2C)cc1NC(=O)NCC(=O)O (stereo not drawn)
29 | 2 | 0.5 | 10 | > 200 | – | – | COc1cc(OC)c(S(=O)(=O)N2c3ccccc3CCC2C)cc1NC(=O)/C=C/C(=O)O (stereo not drawn)
30 | 0.3 | 0.2 | – | > 200 | -1 | 28 | COc1cc(OC)c(S(=O)(=O)N2c3ccccc3CCC2C)cc1NC(=O)COCC(=O)O (stereo not drawn)
31 | 1 | 0.5 | 30 | > 200 | -1.04 | – | COc1cc(OC)c(S(=O)(=O)N2c3ccccc3CCC2C)cc1NC(=S)NCC(=O)O (stereo not drawn)
32 | 0.6 | 0.09 | 20 | > 200 | -0.87 | – | COc1cc(OC)c(S(=O)(=O)N2c3ccccc3CCC2C)cc1NC(=O)CCC(=O)O (stereo not drawn)
33 | 3 | 1.5 | 55 | > 200 | 1.97 | – | COc1cc(OC)c(S(=O)(=O)N2c3ccccc3CCC2C)cc1NC(C)=O (stereo not drawn)
34 | 0.2 | 0.1 | > 200 | > 200 | -1.2 | – | COc1cc(OC)c(S(=O)(=O)N2c3ccccc3CCC2C)cc1NC(=O)CSCC(=O)O (stereo not drawn)
35 | 1 | 0.5 | 2 | 50 | – | – | COc1cc(OC)c(S(=O)(=O)NCc2ccccc2N2CCC(C(=O)O)CC2)cc1NC(=O)CCC(=O)O
36 | 5 | 3 | 12 | > 200 | -0.72 | – | COc1cc(OC)c(S(=O)(=O)NCc2ccccc2N2CCCCC2)cc1NC(=O)CCC(=O)O
37 | 3 | < 0.4 | 2 | 10 | – | – | COc1cc(OC)c(S(=O)(=O)NCc2ccccc2N2CCC(CC(=O)O)CC2)cc1NC(=O)CCC(=O)O
38 | 5 | 0.9 | 15 | – | – | – | COc1cc(OC)c(S(=O)(=O)NCc2ccccc2-c2ccc(C(=O)O)cc2)cc1NC(=O)CCC(=O)O
